Like-named read-outs stand apart in the source and are kept apart here.
How the values were obtained:
VLA-4 = test: Kinetic analysis of VLA-4 deactivation (LDV-FITC dissociation) in U937 cells with non-desensitizing FPR1 mutant; type: cell-based, human; conditions: U937 cells pre-activated through FPR1 mutant, 40 μM, 37°C
Protocol: Kinetic analysis of the binding and dissociation of the LDV-FITC probe was described previously. Briefly, flow cytometric data were acquired at 37°C while the samples were stirred continuously with a stir bar (Bel-Art Products). First, U937 cells transfected with a non-desensitizing mutant of the Formyl Peptide Receptor FPR1 [43] were analyzed for 30-120 s to establish a baseline. The FPR1 mutant triggers VLA-4 activation, which persists for hundreds of seconds, allowing for integrin deactivation to be detected. Next, the LDV-FITC was added and acquisition was re-established. […] Finally, 40 μM of ICE, forskolin (positive control) or vehicle (negative control) were added. Acquisition was re-established, and data were acquired continuously for up to 1024 s.
Therefore, the transition from low to high affinity state led to increased binding of the probe. This was detected as an increase in the median fluorescence intensity (MFI). VLA-4 deactivation led to the dissociation of the probe and decreased MFI [21].

normal human PBMCs = test: CellTiter-Glo cell viability; type: cell-based; conditions: PBMC, overnight, n = 6, ± SEM, read-out: Compound EC50, PBMCs (cell viability)
Protocol: Healthy PBMCs were obtained from volunteers. Mononuclear cells were purified using Mono-Poly resolving medium (MP Biomedicals, cat. 091698049) according to manufacturer's instructions. PBMCs were resuspended in cRPMI and kept on ice prior to use.
(§1) Cell viability was determined with the CellTiter-Glo® Luminescent Cell Viability Assay (Promega). Greiner 655083 had 100 μL cRPMI +/− 4×10^4 cells/well, and dose response curves of compounds ranged from 100 μM to 1.53 nM (1% DMSO). Wells with DMSO-only served as negative controls. Samples were incubated overnight, and the assay was completed according to the manufacturer's protocol. Plates were analyzed using a Victor^3V™ 1420 Multilabel Counter (Perkin Elmer).

B-ALL cell lines = test: CellTiter-Glo cell viability, all B-ALL cell lines together; type: cell-based, human; conditions: Homo sapiens; mean of converged EC50s of six B-ALL lines; read-out: Compound EC50, Mean B-ALL (cell viability)
Protocol: as §1

U937 cells = test: MultiCyt 4-Plex apoptosis assay; type: cell-based, human; conditions: for EC50: Homo sapiens, U-937, 24 h
Protocol: Apoptosis was determined using MultiCyt® 4-Plex Apoptosis Screening Kit (IntelliCyt, cat. 90053). The kit provides four different apoptosis endpoints that include effector caspases 3 and 7 activation, phosphatidylserine surface expression, mitochondrial membrane depolarization and cell membrane integrity. […] Cell membrane damage is detected by the uptake of a proprietary DNA intercalating agent analogous to 7-aminoactinomycin D.
384-well plates (Greiner 784201), pre-loaded with 5 μL cRPMI were stamped using a pintool with 100 nl of DMSO-solubilized compounds from the 100-fold concentrated stock solution. Next, 5 μL U937 cells (2 × 10^6/ml in cRPMI) were added to wells and mixed, and plates were foil-sealed. Compounds (Table 1) were tested in dose response at final concentrations ranging from 15.2 nM to 100 μM (1% DMSO final). Vehicle (DMSO) was used as a negative control. After 24 h incubation under culture conditions, the IntelliCyt MultiCyt 4-Plex Apoptosis Screening Kit was used according to manufacturer's protocol. The data were acquired using iQue Screener Platform (IntelliCyt). Singlet cell populations were analyzed for individual measures of apoptosis, and gates were set based on control histograms.

[1] = system: primary B-ALL patient samples; test: CellTiter-Glo cell viability of primary ALL patient samples ex vivo; type: cell-based, human; conditions: for EC50: Homo sapiens; for Cell viability vs. vehicle treated sample at lower concentrations: samples from patients no. 1 and no. 5
Protocol: Bone marrow samples were acquired at diagnosis from pediatric B-ALL patients. Mononuclear cells were enriched by centrifugation in Ficoll-Paque (GE Healthcare, cat. 17-1440-02) and aliquoted for storage in liquid nitrogen until use. Samples were thawed in a 37°C water bath, resuspended in 20% FBS cRPMI, and centrifuged to remove freezing medium. Cells were resuspended in conditioned medium (DMEM, 10% FBS, 50 U/ml penicillin-streptomycin, 2 mM L-glutamine) from HS-5 stromal cell cultures.
as §1
For primary ALL patient samples, media consisted of 50% cRPMI, 50% conditioned DMEM from HS-5 stromal cell cultures and compounds. Cell densities ranged from 28,000-68,000 cells/well, and plates were foil-sealed prior to incubation.

[2] = mean of converged EC50s, read-out: Compound EC50, Means (of the apoptosis endpoints)
[3] = n = 4, ± SEM, read-out: Compound EC50, Cell membrane damage
[4] = n = 4, ± SEM, read-out: Compound EC50, Mitochondrial depolarization
[5] = even at the highest ICE concentrations
[6] = mean of converged EC50s of six patient samples, read-out: Compound EC50 (Sample means), cell viability
[7] = primary B-ALL sample, duplicate, ± SEM, read-out: Compound EC50 (Patient no. 1), cell viability
[8] = primary B-ALL sample, duplicate, ± SEM, read-out: Compound EC50 (Patient no. 2), cell viability
[9] = primary B-ALL sample, duplicate, ± SEM, read-out: Compound EC50 (Patient no. 3), cell viability
[10] = primary B-ALL sample, duplicate, ± SEM, read-out: Compound EC50 (Patient no. 4), cell viability
[11] = primary B-ALL sample, duplicate, ± SEM, read-out: Compound EC50 (Patient no. 5), cell viability
[12] = primary B-ALL sample, duplicate, ± SEM, read-out: Compound EC50 (Patient no. 6), cell viability
[13] = n = 4, ± SEM, read-out: Compound EC50, Annexin-V +
[14] = n = 4, ± SEM, read-out: Compound EC50, Active Caspase 3/7 +

| SMILES | VLA-4 deactivation (dissociation of LDV-FITC) (VLA-4) | EC50 (normal human PBMCs) | EC50 (B-ALL cell lines) | EC50 (U937 cells; [2]) | EC50 (U937 cells; [3]) | EC50 (U937 cells; [4]) | Effect on annexin-V binding (U937 cells; [5]) | Effect on caspase activation (U937 cells; [5]) | EC50 [1, 6] | EC50 [1, 7] | EC50 [1, 8] | EC50 [1, 9] | EC50 [1, 10] | EC50 [1, 11] | EC50 [1, 12] | EC50 (U937 cells; [13]) | Cell viability vs. vehicle treated sample at lower concentrations [1] | EC50 (U937 cells; [14]) |
| --- | --- | --- | --- | --- | --- | --- | --- | --- | --- | --- | --- | --- | --- | --- | --- | --- | --- | --- |
| C[C@H]1COC2=C1C(=O)C(=O)c1c2ccc2c1CCCC2(C)C [Cryptotanshinone] | rapid and reversible VLA-4 deactivation | 11.8 ± 3.11 µM | 67.7 µM | 25.8 µM | 30.7 ± 6.83 µM | 20.9 ± 6.96 µM | very small effect | very small effect | 19.1 µM | 12.9 ± 5.51 µM | 29.8 ± 8.97 µM | 14 ± 9.8 µM | 34.4 ± 5.79 µM | 6.88 ± 2.89 µM | 16.6 ± 5.55 µM | – | – | – |
| Oc1c(I)cc(Cl)c2cccnc12 [Clioquinol] | – | 87.8 ± 46.8 µM | 35.2 µM | 26.7 µM | 11.1 ± 0.48 µM | 17.9 ± 2.3 µM | – | – | 58.8 µM | 60.1 ± 53.5 µM | 158 ± 84.5 µM | 8.67 ± 4.84 µM | 48 ± 22.9 µM | 13.8 ± 5.23 µM | 63.9 ± 41.1 µM | 51.1 ± 26.2 µM | significant increase in cell viability | – |
| O=C1C=C2C(=CCOC2O)O1 (stereo not shown) [Patulin] | exceeded the effects of the positive control, forskolin | 246 ± 181 µM | 0.38 µM | 4.95 µM | 1.54 ± 0.02 µM | 1.72 ± 0.94 µM | – | – | 7.36 µM | 1.79 ± 1.75 µM | 4.72 ± 2.1 µM | 0.4 ± 0.29 µM | – | 22.5 ± 11.8 µM | – | 3.75 ± 0.63 µM | – | 12.8 ± 0.09 µM |
| C=C1C(=O)O[C@H]2[C@H]1CC/C(C)=C/CC[C@@]1(C)O[C@@H]21 [Parthenolide] | exceeded the effects of the positive control, forskolin | 56 ± 23.3 µM | 1.77 µM | 7.44 µM | 4.34 ± 0.9 µM | 5.52 ± 1.02 µM | – | – | 3.15 µM | 4.72 ± 3.71 µM | 3.65 ± 1.73 µM | 3.17 ± 1.44 µM | 4.13 ± 1.92 µM | 0.92 ± 0.58 µM | 2.31 ± 0.78 µM | 7.55 ± 1.18 µM | significant increase in cell viability | 12.4 ± 2.51 µM |

From publication PMC5085131, “Cyclic AMP efflux inhibitors as potential therapeutic agents for leukemia” (Oncotarget, 2016)
